According to patent US20070219220A1, “Pyrazolopyrimidinethione Derivatives, Salts and Solvates Thereof, Preparation Methods and Use Thereof” (priority 2003, published 2007):
Marks after values point to notes of the source that are not given here.

Test system: mice with testis removed
Test: Sexual function (back climbing) of testis-removed mice (Example 10)
Type: in vivo, KM mice
Conditions: for Incidence: back climbing within 2 hours after administration; for Times of back climbing / Number of the animals who performed back climbing: within 2 hours after administration; for Number of the animals who performed back climbing: 10 male mice
From the text: Methods: Forty healthy KM male mice with the body weight ranging from 28-32 g and forty healthy KM female mice with body weight ranging from 24-28 g were used. Each male mouse was anesthetized with sodium pentobarbital, and the testes were squeezed into the scrotum. After sterilization, the scrotum was dissected with an operating knife. The testes and epididymis were respectively taken out, and then ligated. The wound were sutured and each of the mice was administrated with 100,000 units of penicillin for three consecutive days. After being bred for one week, the mice were used for the tests. The animals may be employed repeatedly and the interval between any two tests was 72 hours. To the mice, the following compounds were orally administered: compound (1), compound (2), compound (3), and compound (4), each at the dose of 80 mg/kg and 40 mg/kg, respectively. The positive control agent was Sildenafil, at the dose of 80 mg/kg. The control group was given with 1% of sodium carboxymethyl cellulose. At 30 min after the administration, the male mice who had taken the above agents were put into the cages of female mice, with the male-to-female rate of 1:1. There were three males and three females in each cage. The times of back climbing on the female mice performed by the male mice, and the percentage of occurrence were observed within 2 hours after the administration.

## CCCc1nn(C)c2c(=S)[nH]c(-c3cc(S(=O)(=O)N4C[C@@H](C)N[C@@H](C)C4)ccc3OCC)nc12 [Compound (2), 5-[2-ethoxy-5-(cis-3,5-dimethylpiperazin-1-sulfonyl)phenyl]-1-methyl-3-n-propyl-1,6-dihydro-7H-pyrazolo[4,3-d]pyrimidin-7-thione]
Oral 40 mg/kg
  Incidence: 60%
  Number of the animals who performed back climbing: 6*
Oral 40 mg/kg, 40 mg/kg
  Times of back climbing: 11*
Oral 40 mg/kg, listed as compound (2), 40 mg/kg
  Times of back climbing: 11
Oral 80 mg/kg
  Incidence: 80%
  Number of the animals who performed back climbing: 8**
Oral 80 mg/kg, 80 mg/kg
  Times of back climbing: 20**
Oral 80 mg/kg, listed as compound (2), 80 mg/kg
  Times of back climbing: 20
